System: Bleomycin-Induced Mouse Pathology (Lung Fibrosis) Model
Assay: Suppression effect on bleomycin-induced mouse pathology (lung fibrosis) model
Assay type: in vivo
Settings: C57BL mice, bleomycin intratracheal, every day for 35 days; for hydroxyproline amount of lung tissues compared to the control group (pathological condition): FIG. 1; for score of abnormal accumulation of a fibrous tissue in lung tissues (Ashcroft's method) compared to the control group: FIG. 2
Method: Test Example 1: Suppression Effect on Bleomycin-Induced Mouse Pathology (Lung Fibrosis) Model
Mice (C57BL, 6 weeks old) were anesthetized by intraperitoneally administrating pentobarbital (50 mg/kg/day), and then bleomycin (20 μg/25 μL per mouse) was intra-tracheally sprayed by a sprayer. A week later, the mice were anesthetized by inhalation of isoflurane, 0.2 mL of blood was taken from the eye orbit of the mice. The blood level of a surfactant protein-D (SP-D) was measured. The mice were divided into groups (9 mice) such that the groups have an equal average SP-D value.
The compound of the present invention was orally administered at each of doses of 100 and 200 mg/kg/day, every day for 35 days. In order to confirm whether a pathological model was established, an untreated group (Normal group) and a Sham group were set up. To the mice of the Sham group, physiological saline was intratracheally sprayed in place of bleomycin. The next day after completion of the final administration, the mice were anesthetized by inhalation of isoflurane and euthanized. Thereafter, the lungs were excised out and subjected to pathological analysis for tissues. Abnormal accumulation of a fibrous tissue was evaluated and the amounts of hydroxyproline in the tissues were measured. The abnormal accumulation of a fibrous tissue was evaluated by using Ashcroft's method (J Clin Pathol 1988; 41: 467-470).
The hydroxyproline amounts of lung tissues of individual groups are shown in FIG. 1 and scores of abnormal accumulation of a fibrous tissue in the lung tissues are shown in FIG. 2. […] From this, it was determined that abnormal accumulation of a fibrous tissue in the lung tissue in mice was induced by bleomycin treatment and pathological models are established.

CNC(=O)c1cc2c(Oc3ccc(NC(=S)NC(=O)Cc4ccccc4)cc3F)ccnc2cc1OC [the compound of the present invention, 4-[2-Fluoro-4-[[[(2-phenylacetyl)amino]thioxomethyl]amino]-phenoxy]-7-methoxy-N-methyl-6-quinolinecarboxamide]
significantly low: hydroxyproline amount of lung tissues compared to the control group (pathological condition) (100 mg/kg/day orally) | score of abnormal accumulation of a fibrous tissue in lung tissues (Ashcroft's method) compared to the control group (100 mg/kg/day orally) | hydroxyproline amount of lung tissues compared to the control group (pathological condition) (200 mg/kg/day orally) | score of abnormal accumulation of a fibrous tissue in lung tissues (Ashcroft's method) compared to the control group (200 mg/kg/day orally)

From patent US11690838B2, “Therapeutic agent for fibrosis” (TAIHO PHARMACEUTICAL CO., LTD., priority 2015, dated 2023)
